From US6338963B1, “Use of carbon monoxide dependent guanylyl cyclase modifiers to stimulate neuritogenesis” (NeoTherapeutics, Inc., priority 1994, dated 2002)

How the values were obtained:
[1] = Appearance and weight during one week in drinking water; format: in vivo, F344 rats; settings: 30 mg/kg/day and ~3,000 mg/kg/day in drinking water
Description: Adult female F344 rats were given either AIT-082 (doses: 30 mg/kg/day or a higher dose of 30 mg/ml (˜3,000 mg/kg/day); n=6 rats per group) in their drinking water, or water alone, as a vehicle for control. The duration of the study was seven days, at which time the rats were anesthesized and perfused with ice-cold saline. The brains of the rats were rapidly removed. The brains were placed on a chilled glass plate and dissected into the following regions: basal forebrain, frontal cortex, parietal cortex, cerebellum, spinal cord, and hippocampal formation. Tissues were stored at −70° C. until assayed in a specific two-site ELISA for either NGF, BDNF, NT-3, or GNDF.
This effect was not seen in animals treated with AIT-082 at 3000 mg/kg/day.

NT-3 mRNA = experiment: Northern blot of neurotrophin mRNA from astrocytes: NT-3; format: cell-based, NIH Swiss mice; design: key: The conditions which produced a detectable amount of each of the neurotrophin mRNAs are indicated by a “+”; a “++” indicating that at least twice the detectable amount was present; Those blots which were negative are indicated by a “−”; settings: 24 hours
Description: Induction of neurotrophin mRNA was determined by northern blot analysis of astrocytes cultured with AIT-082, NGF, or both. The cells were harvested and RNA extracted at 24 hours after treatment.
More particularly, astrocytes from the cerebral cortex of NIH Swiss mice (Harlan) were isolated. Briefly, newborn pups (0-24 hours) were decapitated. Their brains were removed under aseptic conditions and were placed in modified Dulbecco's medium (DMEM) containing 20% heat-inactivated horse serum (Hyclone) (“complete medium”). The neopallium was then dissected from each cerebral hemisphere and minced into 1 mm cubes.
The astrocytes were then isolated by mechanical dissociation. The cubes were vortexed at maximum speed for one minute. The cell suspension was then passed first through 75 mm Nitex then through 10 mm Nitex. The resulting cell suspension was diluted in complete medium to a final concentration of one brain per 10 ml of complete medium. Ten milliliters of the diluted cell suspension was added to each 100 mm Falcon tissue culture plate (Fisher). After 3 days the medium was replaced with 10 ml fresh complete medium and subsequently was replaced twice weekly with DMEM containing 10% heat inactivated horse serum (“growth medium”). After two weeks in culture the astrocytes formed a confluent monolayer.
For RNA extraction, astrocytes were trypsinized. The astrocytes were then replated onto 100 mm PORN coated plates at a cell density of 10^6 cells per plate (10 ml growth medium). […]
The blots were probed with ^32P-labeled cDNA (NGF, NT-3 and BDNF probes) or oligonucleotide probe (FGF-2) by hybridization in Piperazine-N,N′-bis-(2-ethanesulfonic acid) (PIPES) buffer (50 mM PIPES, pH 6.8; 50 mM NaH2PO4; 0.1 M NaCl; 5% SDS and 1 mM EDTA) overnight at 50° C. […] Various concentrations ([…] of total RNA), as determined by spectrophotometry, of each sample were blotted and probed so that quantification could be done after insuring a linear film response. Quantification was performed using MCID Image Analysis (St. Catherine's, Ontario, Canada). […]

## O=C(CCn1cnc2c(=O)[nH]cnc21)Nc1ccc(C(=O)O)cc1 [AIT-082, N-4-carboxyphenyl-3-(6-oxohydropurin-9-yl)propanamide]
[1]
  appearance and weight: appeared normal and showed no overt signs of weight loss
NT-3 mRNA; AIT-082 100 mM
  NT-3 mRNA: ++
NT-3 mRNA; AIT-082 + NGF (40 ng/ml)
  NT-3 mRNA: +
